Entries after “also recorded” stand apart in the source; their conditions may differ.
Key:
[1] = tested on: HDR-edited human HSPC clones; assay: BAR-Seq clonal tracking of HDR-edited HSPCs; assay type: in vivo, NSG mice; details: end of experiment; inhibitor at time of GE vs standard gene edited cells
Experimental: PCR amplicons for individual samples were generated by nested PCR using primers listed in Ferrari, S. et al., 2020, Nat Biotech 38(11):1298-1308 and starting from >50-100 ng of purified gDNA. The first PCR step was performed with GoTaq G2 DNA Polymerase (Promega) according to the manufacturer's instructions using the following amplification protocol: 95° C. for 5 min, (95° C. for 0.5 min, 60° C. for 0.5 min, 72° C. for 0.5 min)×20 cycles, 72° C. for 5 min. Forward primer was designed to bind donor template upstream the BAR sequence, while the reverse primer annealed outside the homology arm, thus amplifying 328 bp of the on-target integrated cassette. For targeted deep sequencing of the plasmid and AAV libraries, the reverse primer annealed to the homology arm. […] Library quality was assessed by Agilent Tapestation (Agilent Technologies). […]
BAR-Seq data were processed with TagDust57 (v.2.33) to identify and extract the BAR from each sample by taking advantage of the structural composition of the reads. […] BAR abundance was quantified by summing the number of identical sequences. […] BARs with a read count lower than three were discarded and the remaining set of BARs were identified as the valid BARs of this sample. […]

human CD34+ HSPCs [2] = assay: Colony-forming unit cell (CFU-C) assay; assay type: cell-based
human CD34+ HSPCs [3] = assay: HDR gene editing efficiency in HSPCs (ddPCR, GFP flow cytometry); assay type: cell-based
IL1A, IL8, IL6, CCL2 = assay: Inflammatory cytokine expression in edited HSPCs (qPCR); assay type: cell-based, human; details: CB HSPCs, HS/AAV6; inhibitor at time of GE vs standard protocol
human CD34+ HSPCs [4] = assay: Senescence markers in HSPCs ex vivo (p16); assay type: cell-based; details: mPB-derived HSPCs, 24 h and 96 h upon GE
[5] = tested on: BM-derived human CD34+ cells; assay: Senescence markers (p16, SA-β-Gal) in BM-derived cells of the human graft; assay type: in vivo, NSG mice
human CD34+ HSPCs [6] = assay: Apoptosis analysis of HSPCs (Annexin V, 7AAD); assay type: cell-based; details: HSPCs edited with COMBO, 24 h upon GE
edited human CD34+ HSPCs = assay: CD34+ HSPC xenotransplantation in NSG mice; assay type: in vivo
IL8, CXCL10, p21, p16 = assay: Gene expression in BM-derived HSPCs (qPCR); assay type: cell-based, human; details: HS/AAV6 ± Anakinra
Experimental: (§1) For gene expression analyses, total RNA was extracted using either miRNeasy Micro Kit (QIAGEN) according to the manufacturer's instructions and DNase treatment was performed using RNase-free DNase Set (QIAGEN). cDNA was synthetized with iScript cDNA Synthesis Kit (Bio-Rad). cDNA was then pre-amplified using TaqMan PreAmp Master Mix (ThermoFisher) and used for q-PCR in a Viia7 Real-time PCR thermal cycler using both Fast SYBR Green Master Mix (Thermofisher), after standard curve method optimization to reach the 100% primer efficiency for each couple of primers listed in 1. The relative expression of each target gene was first normalized to GUSB housekeeping genes expression and then represented as 2^-DCt for each sample or as fold changes (2^-DDCt) relative to the indicated control conditions.

[7] = tested on: BM-derived human CD34+ cells; assay: CFU-C assay of CD34+ cells retrieved from bone marrow of primary recipients; assay type: cell-based; details: 15-18 weeks, inhibitor at time of ex vivo GE vs standard protocol
CDKN1A (p21) = assay: p21 expression in edited HSPCs (qPCR); assay type: cell-based, human; details: CB HSPCs, HS/AAV6 ± Anakinra, 24 and 96 h
Experimental: as §1

human CD34+ HSPCs [8] = assay: Culture composition of HSPC subpopulations (flow cytometry); assay type: cell-based

For “Anakinra: recombinant and slightly modified form of the Human interleukin-1 receptor antagonist (IL-1Ra); SEQ ID NO: 3”, the “Number of dominant unique BARs in human BM-derived cells (polyclonal reconstitution)” value [1] was “higher long-term polyclonal reconstitution”, the “Number of colonies (HSPC clonogenic potential)” value (human CD34+ HSPCs [2]; CB HSPCs, HS/AAV6, inhibitor at time of GE vs standard protocol, 24 h and 96 h post GE) was “significant increase in HSPC clonogenic potential; also recorded: strongly improved HSPC clonogenic potential in vitro; also recorded: strongly improved HSPC clonogenic potential ex-vivo” and the “Clonogenic potential (number of colonies)” value (human CD34+ HSPCs [2]; HSPCs edited with COMBO, 24 and 96 h) was “increase in the clonogenic potential of the cells”. The “Clonogenic potential of edited cells” value (human CD34+ HSPCs [2]; mPB-derived HSPCs, 24 and 96 h post GE) was “significantly improved the clonogenic potential of edited cells”, the “Percentage of HDR-edited alleles (ddPCR)” value (human CD34+ HSPCs [3]; CB HSPCs, AAVS1 editing (HS/AAV6), inhibitor at time of GE (Anakinra 50 ng/μl, SC514 25 μM, GSE56 mRNA, ATMi) vs standard protocol) was “equal percentage of HDR-edited alleles; also recorded: did not affect HSPC ability to repair via HDR” and the “Percentage of GFP+ cells within HSPC subpopulations (GE efficiency)” value (human CD34+ HSPCs [3]; CB HSPCs, HS/AAV6, inhibitor at time of GE vs standard protocol) was “maintained the efficiency of GE across all HSPC subpopulations; also recorded: no significant differences in GE efficiency in all HSPC subpopulations”. For the same substance, the “HSPC ability to repair via HDR (GFP+ cells)” value (human CD34+ HSPCs [3]; HSPCs edited with COMBO) was “without impairing HSPC ability to repair via HDR”, the “HDR ability / percentage of GFP+ cells in HSPC subpopulations” value (human CD34+ HSPCs [3]; mPB-derived HSPCs, AAVS1, inhibitor within 15 minutes upon GE) was “did not affect HSPC ability to repair via HDR” and the “Relative expression of inflammatory cytokine genes (IL1A, IL8, IL6, CCL2)” value (IL1A, IL8, IL6, CCL2) was “downregulated 96 h upon Anakinra treatment”. For the same substance, the “Percentage of p16+ senescent cells in GFP+ HDR-edited cells” value (human CD34+ HSPCs [4]) was “partially mitigated by Anakinra treatment”, the “Percentage of senescent cells (p16, SA-β-Gal) in BM-derived CD34+ / HDR-edited cells of the human graft” value ([5]; NSG mice, endpoint 15-18 weeks, inhibitor at time of ex vivo GE) was “decrease” and the “Senescence burden (p16+) in the human graft” value ([5]; mPB HSPCs, BM-derived HSPC) was “reduction in the senescence burden in the human graft; also recorded: dampened GE-related senescence establishment”. For the same substance, the Apoptosis (human CD34+ HSPCs [6]) was “without overt apoptosis”, the “Percentage of human edited (GFP+) cells in peripheral blood” value (edited human CD34+ HSPCs; HS/AAV6 ± Anakinra) was “higher and stable percentage of GFP+ cells; also recorded: reproducible higher and stable levels of HDR-edited cells” and the “Percentage of GFP+ cells in BM human graft, HSPC, B and myeloid lineages” value (edited human CD34+ HSPCs; endpoint, HS/AAV6 ± Anakinra) was “improved long-term reconstitution”. For the same substance, the “Percentage of human HDR-edited cells in bone marrow” value (edited human CD34+ HSPCs; mPB HSPCs, 15 weeks) was “trend of higher levels of HDR-edited cells”, the “Percentage of human CD45+ cells in bone marrow” value (edited human CD34+ HSPCs; mPB HSPCs, matching low doses, 15 weeks) was “comparable human engraftment independently of Anakinra treatment” and the “Percentage of human CD45+ cells in peripheral blood (plateau of circulating cells)” value (edited human CD34+ HSPCs; saturating cell doses, HS/AAV6 ± Anakinra) was 35-40%. The “Relative expression of pro-inflammatory cytokines (IL8, CXCL10) in BM-derived edited CD34+ cells” value (IL8, CXCL10, p21, p16) was “decrease in pro-inflammatory cytokines expression”, the “Number of colonies formed by BM-derived CD34+ cells” value [7] was “higher clonogenic potential” and the “Relative expression of CDKN1A (p21)” value (CDKN1A (p21)) was “upregulated upon GE compared to negative controls independently from Anakinra treatment”. For the same substance, the “Culture composition of HSPC subpopulations” value (human CD34+ HSPCs [8]; CB HSPCs, 24 h and 96 h post gene editing ± Anakinra) was “No treatment skewed culture composition over time”, the Culture composition skewing (human CD34+ HSPCs [8]; HSPCs edited with COMBO, 24 h and 96 h) was “without overt apoptosis (FIG. 17I) and culture composition skewing” and the “HSPC culture composition and differentiation” value (human CD34+ HSPCs [8]; mPB-derived HSPCs ± Anakinra) was “did not alter HSPC culture composition and differentiation”.

— patent publication US20240408145A1, “Gene Therapy” (Ospedale San Raffaele S.r.l., priority 2021, published 2024)
